Legend:
[1] = tested on: A549 lung cancer cells / M2 macrophages; experiment: Proliferation of A549 cells co-cultivated with M2 macrophages (conditional media, CCK8); format: cell-based, human; settings: SMI0 50 μmol/L during M2 induction, vs M2 macrophage co-cultivation group, P<0.05
Protocol: Experimental method: PMA was used at […] to induce the transformation of human monocytic leukemia cells THP-1 into MO macrophages, and then IL-4 and IL-13 were used at 20 ng/mL to induce the transformation of MO macrophages into M2 macrophages. A supernatant was collected to establish a co-cultivation system with an A549 lung cancer cell, thereby simulating a M2-type macrophage microenvironment of lung cancer. In the SMI0 intervention group, SMI0 (50 μmol/L) was added for intervention while interleukin was added for induction. Culture supernatants of the MO macrophages, M2 macrophages, and SMI0 intervention group were collected to prepare conditional media. […] cells/mL, then 100 μL of each of different conditional media was added to each well, and 24 h later, 10 μL of a CCK8 reagent was added to each well; and the cells were further cultivated for 2 h, and an absorbance OD value of each well was determined at 450 nm by a microplate reader. 3 replicates were set for each well, and an average was taken. The proliferation activity was calculated based on the OD value.

[2] = tested on: M2 microglial cells; experiment: Inflammatory factor and lipid metabolism gene levels in co-cultivated glial cells (qPCR); format: cell-based, mouse; settings: SMI0 50 μmol/L vs M2 microglial cell co-cultivation group
Protocol: Experimental method: 10 1-2 d newborn C57BL/6 WT mice and 6 CYP2E1^−/− mice were taken, primary microglial cells and astrocytes were collected and inoculated into 6-well plates, and 24 h later, culture supernatants were taken and co-cultivated with glioma cells. Experimental groups: control group; M2 model group; high-concentration, medium-concentration, and low-concentration SMI0 (50 μmol/L, 12.5 μmol/L, and 3.1 μmol/L) groups; and CYP2E1 gene-knockout group. 24 h later, supernatants were discarded; and […] and IL-13 each were added at 20 ng/mL to induce the transformation of microglial cells into the M2 type in the M2 model group and the high-concentration, medium-concentration, and low-concentration SMI0 groups, and different concentrations of SMI0 (50 μmol/L, 12.5 μmol/L, and 3.1 μmol/L) were also added in the intervention groups. The proliferation of glioma cells was determined by a CCK8 method, and an apoptosis proportion was determined by an Annexin V-FITC-PI apoptosis staining kit.
Experimental method: Astrocytes in the co-cultivation group were collected, RNA was extracted and reverse-transcribed into cDNA, and the changes of inflammatory factor and cholesterol metabolism-associated genes were detected by qPCR.

## CC(=O)c1scnc1C [SMI0]
[1]
  proliferation activity of A549 cells: significantly weakened
[2]
  level of IL-4: significantly reduced
  level of IL-10: significantly reduced
  level of IL-13: significantly reduced
  level of the lipid metabolism-associated gene PPAR-α: significantly increased

— patent US20230277508A1, “USE OF COMPOUND AS CYP2E1 INHIBITOR” (SHANGHAI LING XI BIOTECHNOLOGY DEVELOPMENT CO., LTD., priority 2020, published 2023)
